# Laboratory results reported in US20130324513A1, “METHOD FOR TREATING ESOPHAGEAL CANCER” (Niiki Pharma Acquisition Corp. 2, priority 2010, published 2013).
# Like-named read-outs stand apart in the source and are kept apart here.
# Tests used:
# [1] = test system: human gastric cancer cell line NCI-N87; assay: MTT Cell Proliferation Assay in NCI-N87; format: cell-based
# Procedure: To test the activities of tris(8-quinolinolato)gallium(III), ATCC's MTT Cell Proliferation Assay® was performed using human gastric cancer cell line NCI-N87 (differentiated carcinoma). Stock cultures were allowed to grow to 70-80% confluence for this study. The anti-proliferative activity of tris(8-quinolinolato)gallium(III), against the indicated cell line was evaluated in vitro using the ATCC's MTT Cell Proliferation Assay (Catalog No. 30-1010K). NCI-N87 was grown using RPMI1640 (Cell Gro 10-040-CV), with 1% of 1M HEPES, 1% sodium pyruvate, 1% of 45% glucose solution, 10% of heat-inactivated FBS and 1% of pen/strep/glutamine. NCI-N87 cell plates were seeded with 20E+03 cells/well and treated with tris(8-quinolinolato)gallium(III) at 1,000 μM, or a series of 4×dilutions thereof (250 μM, 62.5 μM, etc.). 100 μl of medium was removed from each well at 72 hours post-treatment and 10 μl MTT reagent was added to each well. The plates were incubated plate at 37° C. for 4 hours and then 100 μl of detergent was added. The plates were left overnight at room temperature in the dark and was read on a plate reader using SoftMax® Pro (version 5.2, Molecular Devices).
# The absorbance data was analyzed as follows: Absorbance values were converted to Percent of Control and plotted against test agent concentrations for IC50 calculations using SoftMax® Pro (version 5.2, Molecular Devices). The plate blank signal average was subtracted from all wells prior to calculating the Percent of Control. Percent of Control values were calculated by dividing the absorbance values for each test well by the No Drug Control average (column 11 values; cells+vehicle control) and multiplying by 100. Plots of Compound Concentration versus Percent of Control were analyzed using the 4-parameter equation to obtain IC50 values and other parameters that describe the sigmoidal dose response curve.
# The IC50 value for the test agents was estimated by curve-fitting the data using the following four parameter-logistic equation:
# wherein “Top” is the maximal % of control absorbance (100%) (Value “A” in FIG. 1, 88.3), “Bottom” is the minimal % of control absorbance at the highest agent concentration (down to zero) (Value “D” in FIG. 1, 20.8), Y is the Percent of Control absorbance, X is the test agent Concentration, IC50 is the concentration of agent that inhibits cell growth by 50% compared to the control cells (Value “C” in FIG. 1, 8.42e+03), n is the slope of the curve (Value “B” in FIG. 1, 2.31).
# [2] = test system: human esophageal carcinoma cell line OE33; assay: MTT Cell Proliferation Assay in OE33; format: cell-based
# Procedure: To test the activity of tris(8-quinolinolato)gallium(III), ATCC's MTT Cell Proliferation Assay® was performed using human esophageal carcinoma cell line OE33. Stock cultures were allowed to grow to 70-80% confluence for this study. The anti-proliferative activity of tris(8-quinolinolato)gallium(III) against the indicated cell line was evaluated in vitro using the ATCC's MTT Cell Proliferation Assay (Catalog No. 30-1010K). OE33 plates were seeded with 1,200 cells/well, and the cells were grown in RPMI1640 medium containing 1% (1M HEPES), 1% sodium pyruvate, 10% FBS and 1% penicillin/strep/glutamine. Cultures were maintained in a 37° C. humidified 5% CO2/95% air atmosphere. The cells were treated with tris(8-quinolinolato)gallium(III) at 1,000 μM, or a series of 4×dilutions thereof (250 μM, 62.5 μM, etc.). […] The plates were left overnight at room temperature in the dark and was read on a plate reader using SoftMax® Pro (version 5.2, Molecular Devices).
# The absorbance data was analyzed as follows: Absorbance values were converted to Percent of Control and plotted against test agent concentrations for IC50 calculations using SoftMax® Pro (version 5.2, Molecular Devices). […] Percent of Control values were calculated by dividing the absorbance values for each test well by the No Drug Control average (column 11 values; cells+vehicle control) and multiplying by 100. […]
# [3] = NCI-N87, four parameter-logistic fit
compound,measurement,setting,value
[Ga+3].[O-]c1cccc2cccnc12.[O-]c1cccc2cccnc12.[O-]c1cccc2cccnc12 [tris(8-quinolinolato)gallium(III)],growth inhibition in MTT assay (FIG. 1),[1]; NCI-N87,dose-dependent growth inhibition
same,"Bottom, minimal % of control absorbance at the highest agent concentration (Value ""D"" in FIG. 1)",[1]; [3],20.8 % of control
same,"Top, maximal % of control absorbance (Value ""A"" in FIG. 1)",[1]; [3],88.3 % of control
same,IC50,"[1]; NCI-N87, four parameter-logistic fit, X axis of FIG. 1 in nM, read-out: IC50 (Value ""C"" in FIG. 1)",8420 nM
same,IC50,"[1]; NCI-N87 cell line, MTT, 72 hours post-treatment, read-out: IC50 (concentration of agent that inhibits cell growth by 50% compared to the control cells)",8420 nM
same,growth inhibition in MTT assay (FIG. 2),[2]; OE33,dose-dependent growth inhibition
same,IC50,"[2]; OE33 cell line, MTT, 72 hours post-treatment, read-out: IC50 (concentration of agent that inhibits cell growth by 50% compared to the control cells)",3.06 µM
